We go through 22 compounds from ChEMBL document CHEMBL4229354, “Synthesis, antiamoebic activity and docking studies of metronidazole-triazole-styryl hybrids” (Eur J Med Chem, 2018).

In one data set the test system is Entamoeba histolytica. Put plainly: Antiamoebic activity against trophozoite stage of Entamoeba histolytica HM-1:IMSS measured after 72 hrs by microdilution method. It is filed as functional, organism-based. Background: In broth dilution the organism is exposed to a series of concentrations in liquid medium.
In the next data set the test system is Vero. Description: Cytotoxicity against African green monkey Vero cells up to 50 uM. The note with it: chlorocebus sabaeus. It is filed as cell-based.

For orientation: IC50 means the midpoint of a concentration-inhibition curve.

In the data set on Entamoeba histolytica, `Cc1ccc(/C=C/c2ncc([N+](=O)[O-])n2CCn2cc(CO)nn2)cc1` registered an IC50 of 2130 nM.
As for `O=[N+]([O-])c1cnc(/C=C/c2ccc(Cl)cc2)n1CCn1cc(COc2ccccc2)nn1`, in the data set with Entamoeba histolytica, half-maximal inhibition (IC50) was put at 350 nM. Further, the Activity entry in the data set with Vero is given as “Non-Toxic”.
As to `CCc1ccc(/C=C/c2ncc([N+](=O)[O-])n2CCn2cc(-c3ccccc3)nn2)cc1`, the IC50 with Entamoeba histolytica was 4680 nM.
In turn, `O=[N+]([O-])c1cnc(/C=C/c2ccc(Cl)cc2)n1CCn1cc(CO)nn1` had an IC50 in the data set with Entamoeba histolytica of 1110 nM. In addition, the Activity entry in the data set with Vero is “Non-Toxic”.
`O=[N+]([O-])c1cnc(/C=C/c2ccc(F)cc2)n1CCn1cc(COc2ccccc2)nn1` showed a half-maximal inhibitory concentration (IC50) with Entamoeba histolytica of 280 nM. For the same compound, the Activity result in the data set on Vero was “Non-Toxic”.
In turn, `CCc1ccc(/C=C/c2ncc([N+](=O)[O-])n2CCn2cc(CO)nn2)cc1` yielded a half-inhibitory concentration (IC50) in the data set on Entamoeba histolytica of 4180 nM.
Still for that read-out and setting: the same measure for `O=[N+]([O-])c1cnc(/C=C/c2ccc(Br)cc2)n1CCn1cc(CO)nn1`: 1650 nM.
In turn, `Cc1ccc(/C=C/c2ncc([N+](=O)[O-])n2CCn2cc(-c3ccccc3)nn2)cc1` came in with a 50% inhibitory concentration (IC50) in the data set with Entamoeba histolytica of 2510 nM.
Still for that read-out and setting: the same measure for `O=[N+]([O-])c1cnc(/C=C/c2ccc(Br)cc2)n1CCn1cc(COc2ccccc2)nn1`: 1680 nM.
In turn, `O=[N+]([O-])c1cnc(/C=C/c2ccc(F)cc2)n1CCn1cc(-c2ccccn2)nn1` came in with an IC50 in the data set with Entamoeba histolytica of 130 nM. The Activity result in the data set on Vero is recorded as “Non-Toxic”.
As to `O=[N+]([O-])c1cnc(/C=C/c2ccccc2)n1CCn1cc(-c2ccccn2)nn1`, the IC50 with Entamoeba histolytica is 5130 nM.
In the case of `O=[N+]([O-])c1cnc(/C=C/c2ccc(F)cc2)n1CCn1cc(CO)nn1`, 180 nM corresponded to half-maximal inhibition in the data set on Entamoeba histolytica (IC50). Also, the Activity result with Vero is “Non-Toxic”.
In turn, `Cc1ccc(/C=C/c2ncc([N+](=O)[O-])n2CCn2cc(COc3ccccc3)nn2)cc1` had an IC50 in the data set with Entamoeba histolytica of 5380 nM.
For `O=[N+]([O-])c1cnc(/C=C/c2ccc(Cl)cc2)n1CCn1cc(-c2ccccc2)nn1`, the midpoint of inhibition with Entamoeba histolytica, the IC50, lay at 1220 nM. Besides, the Activity entry with Vero was “Non-Toxic”.
Turning to `O=[N+]([O-])c1cnc(/C=C/c2ccc(Br)cc2)n1CCn1cc(-c2ccccc2)nn1`, the half-maximal inhibitory concentration (IC50) with Entamoeba histolytica stood at 1770 nM.
`O=[N+]([O-])c1cnc(/C=C/c2ccc(Br)cc2)n1CCn1cc(-c2ccccn2)nn1` gave an IC50 in the data set on Entamoeba histolytica of 1100 nM. Besides, the Activity entry in the data set on Vero is reported as “Non-Toxic”.
`O=[N+]([O-])c1cnc(/C=C/c2ccccc2)n1CCn1cc(CO)nn1` displayed a half-maximal inhibitory concentration (IC50) in the data set on Entamoeba histolytica of 1120 nM. Further, the Activity entry with Vero was “Non-Toxic”.
The matching figures for `O=[N+]([O-])c1cnc(/C=C/c2ccc(Cl)cc2)n1CCn1cc(-c2ccccn2)nn1`: 290 nM and “Non-Toxic”.
The like results for `O=[N+]([O-])c1cnc(/C=C/c2ccc(F)cc2)n1CCn1cc(-c2ccccc2)nn1` were, in that order, 120 nM and “Non-Toxic”.
The matching figures for `O=[N+]([O-])c1cnc(/C=C/c2ccccc2)n1CCn1cc(-c2ccccc2)nn1`: 1350 nM and “Non-Toxic”.
On to `O=[N+]([O-])c1cnc(/C=C/c2ccccc2)n1CCn1cc(COc2ccccc2)nn1`, for which, in the data set on Entamoeba histolytica, the half-maximal inhibitory concentration (IC50) is 3560 nM.
As for `Cc1ccc(/C=C/c2ncc([N+](=O)[O-])n2CCn2cc(-c3ccccn3)nn2)cc1`, the half-maximal inhibitory concentration (IC50) in the data set on Entamoeba histolytica came to 6010 nM.
